Measurements reported in publication PMC6515293 (Molecules, 2019).
Entries after “also recorded” stand apart in the source; their conditions may differ.

Tests used:
budding yeast = system: budding yeast; design: method as in PMID 29783050; conditions: cited from earlier work
human ERα = system: human ERα; design: method as in PMID 15840436; conditions: 10.0 μM of MEHP in the presence of 10.0 pM E2; cited from earlier work
[1] = system: estrogen responsive elements (ERE-luc or AP-1-luc); design: method as in PMID 20209442; conditions: 10 μM of MEHP; cited from earlier work
male rats = system: male rats; design: method as in PMID 17654256; conditions: cited from earlier work
MCF-7 cells = system: MCF-7 cells; design: method as in PMID 12913283; conditions: cited from earlier work
estrogen receptor = system: estrogen receptor; design: method as in PMID 26272952; conditions: computational network model; cited from earlier work
fetal testis = conditions: cited from earlier work
[2] = system: YES and YAS Saccharomyces cerevisiae yeasts; assay: Yeast cytotoxicity (growth factor, absorbance at 690 nm)

CCCCC(CC)COC(=O)c1ccccc1C(=O)O (stereo not drawn) [MEHP, mono-(2-ethylhexyl) phthalate]
concentration at which cytotoxicity was induced (budding yeast): 1600 µM
anti-estrogenic activity (human ERα): no anti-estrogenic activity
estrogenic activity [1]: estrogenic effect
weights of ventral prostate, seminal vesicles and levator ani/bulbocavernosus (LABC) (male rats): decreased weights
anti-estrogenic activity (MCF-7 cells): decrease of natural estrogenic activity
anti-estrogenic activity (estrogen receptor): no anti-estrogenic activity
testosterone production (fetal testis): did not affect
cytotoxicity (yeast cell viability) ([2]; 100 nM to 1.00 mM): did not induce yeast toxicity; also recorded: no effect
cytotoxicity (yeast cell viability) ([2]; 10.0 mM, growth factor below 0.5): significant cytotoxicity
